Assays:
CHIKV [1] = assay: Antiviral assay (pre-, co-, posttreatment) with FFU readout; details: for anti chikungunya activity: Vero CCL-81, any treatment condition; for IC50 / anti-CHIKV activity in primary screening: FFU; for IC50: Vero CCL-81; for anti-CHIKV activity in primary screening: highest nontoxic concentration
CHIKV [2] = assay: Time-of-addition assay (extra- and intracellular virus, FFU)
CHIKV [3] = assay: Viral RNA copy number by quantitative RT-PCR
MTT cytotoxicity assay = details: African green monkey
Vero CCL-81 cells = assay: MTT cytotoxicity assay; details: for The maximum nontoxic concentration used for primary screening of drugs against CHIKV: Vero CCL-81, ≥90% cell viability
CHIKV [4] = assay: Immunofluorescence assay (percent infected cells); details: posttreatment, IFA, compared to VC
CHIKV [5] = assay: Western blot of viral capsid (C) protein; type: cell-based, Chikungunya virus; details: posttreatment, maximal non-toxic concentration, normalized to β-actin
Description: To investigate the expression of viral proteins, a western blotting assay was performed. […] The cell cultures were subjected to different types of treatment with various concentrations of the appropriate drugs. Cells were lysed using the RIPA buffer and 2X laemmli buffer at 1:1 ratio. The cell culture lysates from uninfected, infected without treatment and infected treated cells were subjected to an electrophoretic run on 10% discontinuous SDS polyacrylamide gels followed by electroblotting onto nitrocellulose membranes. The membranes were then blocked for 30 minutes using phosphate-buffered saline (PBS) containing 5% bovine serum albumin. […] This monoclonal antibody is known to react with the capsid protein of CHIKV and was characterized and purified as described earlier ([Damle et al., 2016]). The membranes were thoroughly rinsed with tris-buffered saline with 0.1% Tween 20 (TBST) after overnight incubation (5 washes totaling a 20-minute soak with rocking), and then they were incubated with the appropriate horseradish peroxidase (HRP) conjugated anti-mouse IgG antibody for two hours while rocking. For developing the blot, ECL substrate (Thermo Scientific) was used in the dark. The image of the blot was captured using the Gel Documentation system (BioRad™, USA), and analysis was done. To quantify the protein signals (density) of the viral protein and housekeeping protein in each lane, ImageJ software was used. After calculating the signal values for each band, the background signals were subtracted from the signal. The relative level of viral protein was normalized to beta-actin (monoclonal antibody 15G5A11/E2, catalog no:MA1-140, Invitrogen, USA). Signal densities were determined using ImageJ software and were plotted using GraphPad Prism software version 7.

[6] = posttreatment, 6.25 µM, VC 8.870

What does the source list for CC(C)(C)C#Cc1cc(N(C(=O)[C@H]2CC[C@H](C)CC2)[C@H]2CC[C@H](O)CC2)c(C(=O)O)s1 [Lomibuvir]?
anti chikungunya activity (CHIKV [1]): exhibit anti chikungunya activity; Selectivity Index (SI) (CHIKV [1]; posttreatment): 19.83; mean log10 viral titer/ml (CHIKV [1]; [6]): 7.655 log10 FFU/ml; IC50 (CHIKV [1]; posttreatment): 1.59 µM; anti-CHIKV activity in primary screening (CHIKV [1]; posttreatment): effective; effect on virus titer (CHIKV [2]; 3.125 µM, added at 3 and 6 h): small but significant reduction; effect on intra- and extracellular virus titer (CHIKV [2]; 6.25 µM, added at 0, 3 and 6 h): significantly reduced; effect on viral RNA copy number/titre (CHIKV [3]; posttreatment): no change observed; CC50 (MTT cytotoxicity assay): 31.5 ± 9.63 µM; The maximum nontoxic concentration used for primary screening of drugs against CHIKV (Vero CCL-81 cells): 6.25 µM

Which “anti chikungunya activity” value (CHIKV [1]) does the source give for CC(C)(C(=O)c1cccnc1)c1cccnc1 [Metyrapone] here?
Its value is “exhibit anti chikungunya activity”.

And the “Selectivity Index (SI)” value (CHIKV [1]; pretreatment)?
The value was 457.80.

What about the “mean log10 viral titer/ml” value (CHIKV [1]; pretreatment, 100 µM, VC 8.665) of the same compound?
Its value is 7.136 log10 FFU/ml.

And the “mean log10 viral titer/ml” value (CHIKV [1]; pretreatment, 200 µM, VC 8.665)?
The value was 7.115 log10 FFU/ml.

What about the IC50 (CHIKV [1]; pretreatment) of the same compound?
The IC50 was 12.2 µM.

And the “anti-CHIKV activity in primary screening” value (CHIKV [1]; pretreatment)?
Its value is “effective”.

What about the “log10 viral RNA copy number” value (CHIKV [3]; pretreatment, 200 µM, VC 9.670) of the same compound?
Its value is 8.984.

What about the CC50 (MTT cytotoxicity assay) of the same compound?
The CC50 was 5600 ± 6100 µM.

And the “The maximum nontoxic concentration used for primary screening of drugs against CHIKV” value (“The maximum nontoxic concentration used” below) (Vero CCL-81 cells)?
The value was 200 µM.

Which results are given for COc1cccc2c1C(=O)c1c(O)c3c(c(O)c1C2=O)C[C@@](O)(C(=O)CO)C[C@@H]3O[C@H]1C[C@H](N)[C@H](O)[C@H](C)O1 [Doxorubicin]?
reduction in percentage of infected cells (CHIKV [4]): prominently observed; viral antigen (C protein) expression (CHIKV [5]): significant reduction; anti chikungunya activity (CHIKV [1]): exhibit anti chikungunya activity; Selectivity Index (SI) (CHIKV [1]; posttreatment): 18.24; mean log10 viral titer/ml (CHIKV [1]; [6]): 7.758 log10 FFU/ml; mean log10 viral titer/ml (CHIKV [1]; posttreatment, 12.5 µM, VC 8.870): 7.509 log10 FFU/ml; mean log10 viral titer/ml (CHIKV [1]; posttreatment, 25 µM, VC 8.870): 7.376 log10 FFU/ml; IC50 (CHIKV [1]; posttreatment): 6.41 µM; anti-CHIKV activity in primary screening (CHIKV [1]; posttreatment): effective; Selectivity Index (SI) (CHIKV [1]; pretreatment): 16.95; mean log10 viral titer/ml (CHIKV [1]; pretreatment, 12.5 µM, VC 8.665): 7.460 log10 FFU/ml; mean log10 viral titer/ml (CHIKV [1]; pretreatment, 25 µM, VC 8.665): 7.333 log10 FFU/ml; IC50 (CHIKV [1]; pretreatment): 6.9 µM; anti-CHIKV activity in primary screening (CHIKV [1]; pretreatment): effective; effect on intra- and extracellular virus particles (CHIKV [2]; 25 µM, added at 0, 3 and 6 h): exerted reduction; reduction in intracellular virus titer (CHIKV [2]; 12.5 and 6.25 µM): not as prominent as extracellular virus titer; effect on viral RNA copy number/titre (CHIKV [3]; posttreatment): no decrease; effect on viral RNA copy number/titre (CHIKV [3]; pretreatment): no decrease; CC50 (MTT cytotoxicity assay): 117 ± 8.25 µM; The maximum nontoxic concentration used for primary screening of drugs against CHIKV (Vero CCL-81 cells): 25 µM

With COc1cc2c(cc1Cc1cccc(Cl)c1F)c(=O)c(C(=O)O)cn2[C@H](CO)C(C)C [Elvitegravir] as the compound, how does the CC50 (MTT cytotoxicity assay) read?
Its CC50 is 12.7 ± 1.52 µM.

What about the “The maximum nontoxic concentration used” value (Vero CCL-81 cells) of the same compound?
Its value is 6.25 µM.

Which “The maximum nontoxic concentration used” value (Vero CCL-81 cells) does the source give for C[C@@]12CCC[C@H]1[C@@H]1CC[C@H]3C[C@@H](O)CC[C@]3(C)[C@H]1CC2 [5-α-3-β-androstanol] here?
The value was 12.5 µM.

And the CC50 (Vero CCL-81 cells; read-out: CC50 value ± SE, Vero CCL-81, MTT, 0.78-200 µM)?
Its CC50 is 23.5 ± 0.856 µM.

With Cc1nc2c(O)cccc2c(=O)[nH]1 [NU-1025] as the compound, how does the “The maximum nontoxic concentration used” value (Vero CCL-81 cells) read?
Its value is 100 µM.

Which CC50 (MTT cytotoxicity assay) does the source give for CC(C)Cn1c(=O)n(C)c(=O)c2[nH]cnc21 [3-isobutyl 1-methylxanthine] here?
Its CC50 is 177 ± 21.7 µM.

What about the “The maximum nontoxic concentration used” value (Vero CCL-81 cells) of the same compound?
The value was 50 µM.

Reference: PMC10174255, “Drug repurposing approach against chikungunya virus: an in vitro and in silico study” (Frontiers in Cellular and Infection Microbiology, 2023)
